Experimental data from ChEMBL document CHEMBL4706474, “Tetrahydro-2-naphthyl and 2-Indanyl Triazolopyrimidines Targeting Plasmodium falciparum Dihydroorotate Dehydrogenase Display Potent and Selective Antimalarial Activity” (J Med Chem, 2016).
Converted amounts (≈) assume the structure as drawn. The source made the active and inactive calls. The rule behind the calls is not given here.

Columns and labels:
Cytochrome P450 2C9 = Cytochrome P450 2C9 (Homo sapiens, UniProt P11712); assay: Inhibition of CYP2C9 in human liver microsomes using isoform-specific probe substrates in presence of NADPH-generating system by LC-MS analysis; assay type: ADME
Sequence of Cytochrome P450 2C9 (P11712 whole entry, canonical isoform): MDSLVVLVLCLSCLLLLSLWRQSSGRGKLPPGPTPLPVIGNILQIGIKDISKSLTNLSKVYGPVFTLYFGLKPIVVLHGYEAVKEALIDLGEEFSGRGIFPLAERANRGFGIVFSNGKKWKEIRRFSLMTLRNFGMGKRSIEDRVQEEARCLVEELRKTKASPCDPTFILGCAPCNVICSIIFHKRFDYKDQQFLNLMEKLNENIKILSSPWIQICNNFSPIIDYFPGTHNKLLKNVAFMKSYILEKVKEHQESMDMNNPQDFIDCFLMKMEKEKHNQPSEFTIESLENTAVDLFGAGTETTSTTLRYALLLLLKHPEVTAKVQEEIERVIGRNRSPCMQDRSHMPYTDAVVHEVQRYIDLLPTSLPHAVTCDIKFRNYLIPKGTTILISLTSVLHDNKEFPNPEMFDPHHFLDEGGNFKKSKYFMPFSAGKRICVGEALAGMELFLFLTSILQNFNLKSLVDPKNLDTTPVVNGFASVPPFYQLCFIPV

[1] = Lipophilicity, logD of the compound at pH 7.4; assay type: physicochemical; conditions: buffer
Plasmodium falciparum [2] = assay: Antiplasmodial activity against Plasmodium falciparum 3D7 infected in po dosed NSG mouse assessed as reduction in parasitemia administered once daily for 4 consecutive days starting from day 3 post-infection and measured 24 hrs post last dose by flow cytometric analysis; assay type: functional; conditions: 3D7, po, 96 h, time 4 day
Plasmodium falciparum [3] = assay: Antimalarial activity against chloroquine, pyrimethamine and cycloguanil resistant Plasmodium falciparum K1; assay type: functional, organism-based
Plasmodium falciparum [4] = assay: Antiplasmodial activity against Plasmodium falciparum 3D7 infected in NSG mouse assessed as blood AUC level require to show 90% reduction in parasitemia administered orally on day 3 post-infection QD for 4 days and measured after 24 hrs post dose by LC-MS/MS analysis; assay type: functional, organism-based; conditions: time 4.0 day
[5] = Inhibition of N-terminal His6-tagged Plasmodium vivax DHODH expressed in Escherichia coli BL21 using L-DHO as substrate and CoQ as co-substrate by DCIP dye based spectrophotometric assay
Plasmodium falciparum [6] = assay: Antimalarial activity against Plasmodium falciparum D6; assay type: functional, organism-based
[7] = Inhibition of N-terminal His6-tagged Plasmodium falciparum DHODH expressed in Escherichia coli BL21 using L-DHO as substrate and CoQ as co-substrate by DCIP dye based spectrophotometric assay
[8] = target: Dihydroorotate dehydrogenase (quinone), mitochondrial (Mus musculus, UniProt O35435)
Sequence of Dihydroorotate dehydrogenase (quinone), mitochondrial (Mus musculus, UniProt O35435) (O35435 whole entry): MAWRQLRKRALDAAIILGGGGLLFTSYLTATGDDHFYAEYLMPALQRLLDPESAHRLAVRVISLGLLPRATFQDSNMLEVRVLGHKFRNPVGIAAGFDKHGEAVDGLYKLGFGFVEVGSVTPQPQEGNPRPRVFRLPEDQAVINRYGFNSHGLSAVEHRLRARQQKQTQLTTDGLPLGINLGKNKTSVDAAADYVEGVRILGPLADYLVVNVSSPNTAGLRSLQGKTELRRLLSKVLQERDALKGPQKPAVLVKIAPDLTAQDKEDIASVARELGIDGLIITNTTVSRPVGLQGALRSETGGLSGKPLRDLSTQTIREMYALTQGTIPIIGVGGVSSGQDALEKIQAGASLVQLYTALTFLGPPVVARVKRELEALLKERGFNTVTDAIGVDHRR

[9] = Intrinsic clearance in human pooled liver microsomes assessed per mg protein at 1 uM by LC-MS analysis; assay type: ADME, Microsome; conditions: microsomes, 1 µM
[10] = Kinetic solubility of compound in phosphate buffer at pH 6.5 measured after 30 mins by HPLC-UV based analysis; assay type: physicochemical; conditions: phosphate buffer, pH 6.5, read-out: Kinetic_solubility
Plasmodium falciparum [11] = assay: Antimalarial activity against atovaquone, chloroquine, cycloguanil and pyrimethamine resistant Plasmodium falciparum TM90C2B; assay type: functional, organism-based
Plasmodium falciparum [12] = assay: Antiplasmodial activity against Plasmodium falciparum 3D7 infected in RBC assessed as reduction in parasitemia incubated for 72 hrs by SYBR green dye-based assay; assay type: functional, organism-based; conditions: Plasmodium falciparum, 3D7, Erythrocyte, 72 h
Cytochrome P450 2C19 = Cytochrome P450 2C19 (Homo sapiens, UniProt P33261); assay: Inhibition of CYP2C19 in human liver microsomes using isoform-specific probe substrates in presence of NADPH-generating system by LC-MS analysis; assay type: ADME; conditions: read-out: IC50
Sequence of Cytochrome P450 2C19 (P33261 whole entry, canonical isoform): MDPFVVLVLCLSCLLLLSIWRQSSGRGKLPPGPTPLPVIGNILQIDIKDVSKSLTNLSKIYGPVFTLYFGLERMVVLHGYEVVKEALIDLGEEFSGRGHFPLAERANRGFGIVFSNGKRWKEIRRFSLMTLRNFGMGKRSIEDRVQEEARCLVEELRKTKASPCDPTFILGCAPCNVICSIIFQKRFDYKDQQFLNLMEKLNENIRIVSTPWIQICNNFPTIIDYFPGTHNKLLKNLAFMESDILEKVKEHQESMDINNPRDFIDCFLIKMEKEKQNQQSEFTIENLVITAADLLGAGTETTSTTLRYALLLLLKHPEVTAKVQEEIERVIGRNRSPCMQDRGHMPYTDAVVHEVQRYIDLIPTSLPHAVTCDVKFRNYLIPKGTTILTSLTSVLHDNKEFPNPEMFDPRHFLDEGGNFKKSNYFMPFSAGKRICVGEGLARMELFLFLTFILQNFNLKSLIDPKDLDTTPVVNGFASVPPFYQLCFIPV

Plasmodium falciparum [13] = assay: Antimalarial activity against pyrimethamine resistant Plasmodium falciparum HB3; assay type: functional, organism-based
[14] = Solubility of compound in 0.1 N HCl measured after 5 to 6 hrs by HPLC-UV based analysis; assay type: physicochemical; conditions: buffer; time 5-6 hrs
[15] = Intrinsic clearance in mouse liver microsomes at 1 uM by LC-MS analysis; assay type: ADME, Microsome
Cytochrome P450 2B6 = target: T1, Cytochrome P450 2B6 (Homo sapiens, UniProt P20813); assay: Inhibition of CYP2B6 in human liver microsomes using isoform-specific probe substrates in presence of NADPH-generating system by LC-MS analysis; assay type: ADME
T1 sequence (P20813 whole entry): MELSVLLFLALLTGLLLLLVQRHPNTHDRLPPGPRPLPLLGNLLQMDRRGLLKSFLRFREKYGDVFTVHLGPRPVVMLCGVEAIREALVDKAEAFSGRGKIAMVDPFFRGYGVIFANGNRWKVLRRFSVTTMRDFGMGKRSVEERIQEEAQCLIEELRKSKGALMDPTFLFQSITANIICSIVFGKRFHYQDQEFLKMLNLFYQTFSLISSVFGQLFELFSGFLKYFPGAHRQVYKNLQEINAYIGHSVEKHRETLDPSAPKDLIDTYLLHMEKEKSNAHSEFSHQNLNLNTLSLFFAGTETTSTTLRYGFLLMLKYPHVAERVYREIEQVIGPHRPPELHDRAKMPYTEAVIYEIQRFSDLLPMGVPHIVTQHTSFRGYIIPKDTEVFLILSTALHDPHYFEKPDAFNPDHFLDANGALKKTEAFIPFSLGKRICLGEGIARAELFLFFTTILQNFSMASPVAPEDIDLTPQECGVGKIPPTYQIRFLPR

[16] = Protein binding in rat plasma assessed as bound fraction by LC-MS analysis based ultracentrifugation assay; assay type: ADME, cell-free; conditions: read-out: PPB (converted)
[17] = Unbound AUC (0 to infinity) in Swiss mouse at 20 mg/kg, po administered as single dose via gavage measured over 24 hrs by LC-MS analysis; assay type: ADME, organism-based; conditions: in vivo
[18] = Solubility of compound in FaSSIF at pH 6.5 measured after 5 to 6 hrs by HPLC-UV based analysis
[19] = target: Dihydroorotate dehydrogenase (quinone), mitochondrial (Homo sapiens, UniProt Q02127); assay: Inhibition of N-terminal His6-tagged human DHODH expressed in Escherichia coli BL21 using L-DHO as substrate and CoQ as co-substrate by DCIP dye based spectrophotometric assay
Sequence of Dihydroorotate dehydrogenase (quinone), mitochondrial (Homo sapiens, UniProt Q02127) (Q02127 whole entry, canonical isoform): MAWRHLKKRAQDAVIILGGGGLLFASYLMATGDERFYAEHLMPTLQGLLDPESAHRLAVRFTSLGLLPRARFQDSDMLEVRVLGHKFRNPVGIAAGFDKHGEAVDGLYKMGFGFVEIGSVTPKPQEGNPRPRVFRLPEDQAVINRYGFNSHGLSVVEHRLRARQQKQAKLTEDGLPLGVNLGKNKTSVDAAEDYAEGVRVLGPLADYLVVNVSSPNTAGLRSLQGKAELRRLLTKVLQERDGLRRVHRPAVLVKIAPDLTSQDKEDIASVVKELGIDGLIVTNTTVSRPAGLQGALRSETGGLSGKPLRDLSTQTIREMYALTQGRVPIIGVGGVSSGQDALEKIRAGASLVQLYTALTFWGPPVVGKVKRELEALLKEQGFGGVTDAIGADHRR

Cytochrome P450 2D6 = Cytochrome P450 2D6 (Homo sapiens, UniProt P10635); assay: Inhibition of CYP2D6 in human liver microsomes using isoform-specific probe substrates in presence of NADPH-generating system by LC-MS analysis; assay type: ADME
Sequence of Cytochrome P450 2D6 (P10635 whole entry, canonical isoform): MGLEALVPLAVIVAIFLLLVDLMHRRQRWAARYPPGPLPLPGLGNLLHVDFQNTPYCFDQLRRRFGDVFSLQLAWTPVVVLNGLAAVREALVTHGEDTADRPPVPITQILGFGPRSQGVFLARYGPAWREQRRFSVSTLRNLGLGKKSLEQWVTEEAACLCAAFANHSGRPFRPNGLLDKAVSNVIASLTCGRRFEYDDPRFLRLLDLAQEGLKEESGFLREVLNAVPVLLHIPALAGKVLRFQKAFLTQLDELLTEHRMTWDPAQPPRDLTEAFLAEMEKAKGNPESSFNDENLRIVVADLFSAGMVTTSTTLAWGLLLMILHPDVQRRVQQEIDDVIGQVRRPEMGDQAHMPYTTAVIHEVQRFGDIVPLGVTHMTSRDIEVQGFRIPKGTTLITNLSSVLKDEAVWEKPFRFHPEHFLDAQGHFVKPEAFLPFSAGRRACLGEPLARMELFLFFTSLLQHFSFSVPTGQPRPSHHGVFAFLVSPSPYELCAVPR

[20] = Intrinsic clearance in rat liver microsomes assessed per mg protein at 1 uM by LC-MS analysis; assay type: ADME, Microsome; conditions: microsomes, 1 µM
[21] = Unbound Cmax in Swiss mouse at 20 mg/kg, po administered as single dose via gavage measured over 24 hrs by LC-MS analysis; assay type: ADME, organism-based; conditions: in vivo
[22] = Protein binding in mouse plasma assessed as bound fraction by LC-MS analysis based ultracentrifugation assay; assay type: ADME, cell-free; conditions: read-out: PPB (converted)
Cytochrome P450 1A2 = target: T2, Cytochrome P450 1A2 (Homo sapiens, UniProt P05177); assay: Inhibition of CYP1A2 in human liver microsomes using isoform-specific probe substrate in presence of NADPH-generating system by LC-MS analysis; assay type: ADME
T2 sequence (P05177 whole entry): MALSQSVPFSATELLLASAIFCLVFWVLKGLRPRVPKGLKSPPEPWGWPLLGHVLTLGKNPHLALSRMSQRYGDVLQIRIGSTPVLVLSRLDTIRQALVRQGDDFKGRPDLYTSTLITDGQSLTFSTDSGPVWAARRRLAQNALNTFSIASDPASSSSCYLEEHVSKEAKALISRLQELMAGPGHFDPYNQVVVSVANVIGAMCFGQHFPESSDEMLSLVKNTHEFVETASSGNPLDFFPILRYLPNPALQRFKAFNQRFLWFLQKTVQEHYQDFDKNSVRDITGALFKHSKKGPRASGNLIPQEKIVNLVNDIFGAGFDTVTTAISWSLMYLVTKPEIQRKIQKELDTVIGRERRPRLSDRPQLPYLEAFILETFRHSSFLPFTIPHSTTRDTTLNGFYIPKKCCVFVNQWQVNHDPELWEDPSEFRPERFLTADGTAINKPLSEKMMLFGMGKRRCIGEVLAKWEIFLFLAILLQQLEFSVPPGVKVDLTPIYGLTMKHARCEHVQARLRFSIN

[23] = Protein binding in human plasma assessed as bound fraction by LC-MS analysis based ultracentrifugation assay; assay type: ADME, cell-free; conditions: read-out: PPB (converted)

Cc1cc(N[C@H]2CCc3ccc(Cl)cc3C2)n2nc(C(C)(F)F)nc2n1
IC50 (Cytochrome P450 2C9): 2100 nM
logD [1]: 3.9
ED90 (Plasmodium falciparum [2]): 19 mg/kg
Activity (Plasmodium falciparum [3]): Active
AUCED90 (Plasmodium falciparum [4]): 10.3 µM.hr/day
IC50 [5]: 10 nM
Activity (Plasmodium falciparum [6]): Active
IC50 [7]: 6.3 nM
IC50 [8]: > 100000 nM
microsomal intrinsic clearance [9]: < 7 µL/min
solubility kinetic at 0.5 h [10]: 3.1 µg/mL (≈ 8.2 µM)
Activity (Plasmodium falciparum [11]): Active
EC50 (Plasmodium falciparum [12]): 1.2 nM
IC50 (Cytochrome P450 2C19): > 20000 nM
Activity (Plasmodium falciparum [13]): Active
solubility [14]: 105 µg/mL (≈ 278 µM)
intrinsic clearance [15]: 31 µL/min
IC50 (Cytochrome P450 2B6): > 20000 nM
fraction unbound [16]: 0.036
fAUC [17]: 0.59 µM·h
solubility [18]: 12 µg/mL (≈ 31.8 µM)
IC50 [19]: > 100000 nM
IC50 (Cytochrome P450 2D6): 2700 nM
Intrinsic clearance in rat liver microsomes (uL/min/mg protein) [20]: 38 µL/min
fCmax [21]: 0.13 µM
fraction unbound [22]: 0.026
IC50 (Cytochrome P450 1A2): > 20000 nM
fraction unbound [23]: 0.033

Cc1cc(NC2Cc3cc(F)c(F)cc3C2)n2nc(C(C)(F)F)nc2n1
IC50 (Cytochrome P450 2C9): 18500 nM
logD [1]: 3.4
ED90 (Plasmodium falciparum [2]): 35 mg/kg
Activity (Plasmodium falciparum [3]): Active
AUCED90 (Plasmodium falciparum [4]): 137 µM.hr/day
IC50 [5]: 370 nM
Activity (Plasmodium falciparum [6]): Active
IC50 [7]: 52 nM
IC50 [8]: > 100000 nM
microsomal intrinsic clearance [9]: < 7 µL/min
solubility kinetic at 0.5 h [10]: 6.3 µg/mL (≈ 17.2 µM)
Activity (Plasmodium falciparum [11]): Active
EC50 (Plasmodium falciparum [12]): 40 nM
IC50 (Cytochrome P450 2C19): > 20000 nM
Activity (Plasmodium falciparum [13]): Active
solubility [14]: 180 µg/mL (≈ 493 µM)
intrinsic clearance [15]: 21 µL/min
IC50 (Cytochrome P450 2B6): > 20000 nM
fraction unbound [16]: 0.058
fAUC [17]: 7.9 µM·h
solubility [18]: 15 µg/mL (≈ 41.1 µM)
IC50 [19]: > 100000 nM
IC50 (Cytochrome P450 2D6): 5900 nM
Intrinsic clearance in rat liver microsomes (uL/min/mg protein) [20]: < 7 µL/min
fCmax [21]: 1.4 µM
fraction unbound [22]: 0.047
IC50 (Cytochrome P450 1A2): > 20000 nM
fraction unbound [23]: 0.066
